Relative viability data for seven cell lines are collected here from the supplement of paper PMC10307832.

Test in all cases: relative viability (nuclei count vs DMSO), 5 days (fraction); higher = more cells survive
Compound in assay [1]: C1=CC=C(C(=C1)C2=CC=C(C=C2)C3=CSC4=C3C(=C(C(=O)N4)C#N)O)O + CS(=O)(=O)CCNCc1ccc(-c2ccc3ncnc(Nc4ccc(OCc5cccc(F)c5)c(Cl)c4)c3c2)o1 [Lapatinib] (partner 2 µM)
A digest of the protocol: (§1)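 Five library-drug doses in √10 steps were combined with a fixed anchor-drug dose, or a single drug was given alone, by pin tool to lung cancer cell lines in 1536-well plates the day after seeding. Nuclei were stained and counted after 5 days. Relative viability is the nuclei count in treated wells over that in vehicle wells, taken as the median of duplicate plates.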

Compound in assay [2]: C1=CC=C(C(=C1)C2=CC=C(C=C2)C3=CSC4=C3C(=C(C(=O)N4)C#N)O)O + COc1cc2c(Oc3ccc(NC(=O)C4(C(=O)Nc5ccc(F)cc5)CC4)cc3F)ccnc2cc1OCCCN1CCOCC1 [Foretinib] (partner 0.25 µM)
The essentials: as §1

Compound in assay [3]: CC1=CN2C(=O)C=C(N=C2C(=C1)C(C)NC3=CC=CC=C3)N4CCOCC4 [TGX 221] + Nc1ncn([C@H]2C[C@H](O)[C@@H](CO)O2)c(=O)n1 [Decitabine] (partner 2 µM)
A digest of the protocol: as §1

Compound in assay [4]: CC1=CN2C(=O)C=C(N=C2C(=C1)C(C)NC3=CC=CC=C3)N4CCOCC4 [TGX 221] + Cc1cc(Nc2cc(N3CCN(C)CC3)nc(Sc3ccc(NC(=O)C4CC4)cc3)n2)n[nH]1 [Tozasertib] (partner 0.1 µM)
A digest of the protocol:
as §1

NCI-H3122: the relative viability is 1.05 in assay [1] (first compound 0.08 µM); 1.17 in assay [1] (first compound 0.253 µM); 1.06 in assay [1] (first compound 0.8 µM); 1.06 in assay [1] (first compound 2.53 µM); 1.02 in assay [1] (first compound 8 µM); 0.954 in assay [2] (first compound 0.08 µM). Also, the relative viability worked out at 1.05 in assay [2] (first compound 0.253 µM); 1.01 in assay [2] (first compound 0.8 µM); 1.06 in assay [2] (first compound 2.53 µM); 0.978 in assay [2] (first compound 8 µM); 0.405 in assay [3] (first compound 0.08 µM); 0.33 in assay [3] (first compound 0.253 µM). Further, the relative viability in assay [3] (first compound 0.8 µM) came to 0.422; in assay [3] (first compound 2.53 µM), 0.378; in assay [3] (first compound 8 µM) it was 0.548; in assay [4] (first compound 0.08 µM), 0.368; in assay [4] (first compound 0.253 µM), 0.402; in assay [4] (first compound 0.8 µM), 0.372. The relative viability in assay [4] (first compound 2.53 µM) was determined as 0.34; in assay [4] (first compound 8 µM) it was 0.379.

For HOP-62, the relative viability in assay [1] (first compound 0.08 µM) worked out at 0.766; in assay [1] (first compound 0.253 µM), 0.888; in assay [1] (first compound 0.8 µM) it was 1.1; in assay [1] (first compound 2.53 µM), 1.19; in assay [1] (first compound 8 µM), 0.871; in assay [2] (first compound 0.08 µM), 1.15. The relative viability in assay [2] (first compound 0.253 µM) was 1.01; in assay [2] (first compound 0.8 µM), 1.17; in assay [2] (first compound 2.53 µM), 1.28; in assay [2] (first compound 8 µM), 1; in assay [3] (first compound 0.08 µM), 0.213; in assay [3] (first compound 0.253 µM), 0.185. For the same cell line, the relative viability in assay [3] (first compound 0.8 µM) was 0.207; in assay [3] (first compound 2.53 µM), 0.246; in assay [3] (first compound 8 µM) it was 0.268; in assay [4] (first compound 0.08 µM), 0.372; in assay [4] (first compound 0.253 µM) it was 0.416; in assay [4] (first compound 0.8 µM), 0.34. The relative viability in assay [4] (first compound 2.53 µM) is 0.387; in assay [4] (first compound 8 µM), 0.316.

Take LU99A: the relative viability in assay [1] (first compound 0.08 µM) came to 0.97; in assay [1] (first compound 0.253 µM), 1.09; in assay [1] (first compound 0.8 µM) it was 1.13; in assay [1] (first compound 2.53 µM), 1.12; in assay [1] (first compound 8 µM) it was 0.955; in assay [2] (first compound 0.08 µM) it was 0.89. Further, the relative viability in assay [2] (first compound 0.253 µM) was 0.86; in assay [2] (first compound 0.8 µM) it was 0.754; in assay [2] (first compound 2.53 µM) it was 0.83; in assay [2] (first compound 8 µM) it was 0.797; in assay [3] (first compound 0.08 µM) it was 0.861; in assay [3] (first compound 0.253 µM), 0.842. For the same cell line, the relative viability was 0.852 in assay [3] (first compound 0.8 µM); 0.937 in assay [3] (first compound 2.53 µM); 0.997 in assay [3] (first compound 8 µM); 0.24 in assay [4] (first compound 0.08 µM); 0.274 in assay [4] (first compound 0.253 µM); 0.258 in assay [4] (first compound 0.8 µM). Also, the relative viability in assay [4] (first compound 2.53 µM) came to 0.282; in assay [4] (first compound 8 µM), 0.276.

For the cell line NCI-H2405, the relative viability in assay [1] (first compound 0.08 µM) is 1.01; in assay [1] (first compound 0.253 µM) it was 1.12; in assay [1] (first compound 0.8 µM), 1.11; in assay [1] (first compound 2.53 µM) it was 0.984; in assay [1] (first compound 8 µM), 1.04; in assay [2] (first compound 0.08 µM), 1.05. Besides, the relative viability is 1.04 in assay [2] (first compound 0.253 µM); 1.01 in assay [2] (first compound 0.8 µM); 1.01 in assay [2] (first compound 2.53 µM); 0.983 in assay [2] (first compound 8 µM); 0.72 in assay [3] (first compound 0.08 µM); 0.729 in assay [3] (first compound 0.253 µM). Also, the relative viability was 0.75 in assay [3] (first compound 0.8 µM); 0.68 in assay [3] (first compound 2.53 µM); 0.615 in assay [3] (first compound 8 µM); 0.737 in assay [4] (first compound 0.08 µM); 0.771 in assay [4] (first compound 0.253 µM); 0.693 in assay [4] (first compound 0.8 µM). The values for the relative viability in assay [4] (first compound 2.53 µM) and in assay [4] (first compound 8 µM) were 0.745 and 0.697, respectively.

For the cell line PC-14, the relative viability came to 0.287 in assay [1] (first compound 0.08 µM); 0.38 in assay [1] (first compound 0.253 µM); 0.3 in assay [1] (first compound 0.8 µM); 0.256 in assay [1] (first compound 2.53 µM); 0.269 in assay [1] (first compound 8 µM); 0.887 in assay [2] (first compound 0.08 µM). In addition, the relative viability in assay [2] (first compound 0.253 µM) was 1.24; in assay [2] (first compound 0.8 µM) it was 0.911; in assay [2] (first compound 2.53 µM), 1.03; in assay [2] (first compound 8 µM) it was 0.826; in assay [3] (first compound 0.08 µM) it was 0.206; in assay [3] (first compound 0.253 µM) it was 0.203. The relative viability in assay [3] (first compound 0.8 µM) amounted to 0.228; in assay [3] (first compound 2.53 µM), 0.281; in assay [3] (first compound 8 µM), 0.207; in assay [4] (first compound 0.08 µM) it was 0.619; in assay [4] (first compound 0.253 µM), 0.615; in assay [4] (first compound 0.8 µM) it was 0.631. For the same cell line, the relative viability is 0.589 in assay [4] (first compound 2.53 µM) and 0.459 in assay [4] (first compound 8 µM).

For the cell line COR-L23, the relative viability in assay [1] (first compound 0.08 µM) amounted to 0.772; in assay [1] (first compound 0.253 µM), 1.22; in assay [1] (first compound 0.8 µM), 0.834; in assay [1] (first compound 2.53 µM), 1.11; in assay [1] (first compound 8 µM), 0.712; in assay [2] (first compound 0.08 µM) it was 0.966. In addition, the relative viability in assay [2] (first compound 0.253 µM) turned out to be 1.08; in assay [2] (first compound 0.8 µM), 1.13; in assay [2] (first compound 2.53 µM), 1.07; in assay [2] (first compound 8 µM), 0.909; in assay [3] (first compound 0.08 µM), 0.445; in assay [3] (first compound 0.253 µM), 0.402. For the same cell line, the relative viability in assay [3] (first compound 0.8 µM) was found to be 0.483; in assay [3] (first compound 2.53 µM) it was 0.487; in assay [3] (first compound 8 µM), 0.489; in assay [4] (first compound 0.08 µM), 0.168; in assay [4] (first compound 0.253 µM), 0.222; in assay [4] (first compound 0.8 µM) it was 0.187. Also, the relative viability in assay [4] (first compound 2.53 µM) amounted to 0.164; in assay [4] (first compound 8 µM), 0.179.

For NCI-H1666, the relative viability stood at 0.667 in assay [1] (first compound 0.08 µM); 0.826 in assay [1] (first compound 0.253 µM); 0.577 in assay [1] (first compound 0.8 µM); 0.427 in assay [1] (first compound 2.53 µM); 0.59 in assay [1] (first compound 8 µM); 1 in assay [2] (first compound 0.08 µM). Further, the relative viability in assay [2] (first compound 0.253 µM) amounted to 0.976; in assay [2] (first compound 0.8 µM), 0.95; in assay [2] (first compound 2.53 µM) it was 1.01; in assay [2] (first compound 8 µM), 0.916; in assay [3] (first compound 0.08 µM), 0.649; in assay [3] (first compound 0.253 µM), 0.738. In addition, the relative viability in assay [3] (first compound 0.8 µM) stood at 0.76; in assay [3] (first compound 2.53 µM), 0.709; in assay [3] (first compound 8 µM), 0.664; in assay [4] (first compound 0.08 µM), 0.6; in assay [4] (first compound 0.253 µM) it was 0.591; in assay [4] (first compound 0.8 µM), 0.6. The relative viability in assay [4] (first compound 2.53 µM) is 0.576; in assay [4] (first compound 8 µM), 0.538.
